Results reported in PubChem BioAssay (NCI).
Values after ≈ are worked out from the molar mass of the structure shown.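 1) Cells in 96-well plates. 2) Compound, 48 h, 5 concentrations. 3) Linear interpolation between surrounding doses. 4) Unreached endpoint = highest concentration. GI50: concentration for 50% inhibition of growth. TGI: total growth inhibition.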

What was measured:
Test in all cases: NCI-60 cell line screen, 48 h
IGROV1 ovarian = system: IGROV1 ovarian
MDA-MB-435 = system: MDA-MB-435
PC-3 prostate = system: PC-3 prostate
RXF 393 renal = system: RXF 393 renal
SF-295 CNS = system: SF-295 CNS
SK-OV-3 ovarian = system: SK-OV-3 ovarian
T-47D breast = system: T-47D breast
TK-10 renal = system: TK-10 renal
U251 CNS = system: U251 CNS
UACC-62 melanoma = system: UACC-62 melanoma

SMILES	GI50 (IGROV1 ovarian) [µg/mL]	TGI (IGROV1 ovarian)	GI50 (MDA-MB-435) [µg/mL]	TGI (MDA-MB-435)	GI50 (PC-3 prostate) [µg/mL]	TGI (PC-3 prostate)	GI50 (RXF 393 renal) [µg/mL]	TGI (RXF 393 renal)	GI50 (SF-295 CNS) [µg/mL]	TGI (SF-295 CNS)	GI50 (SK-OV-3 ovarian) [µg/mL]	TGI (SK-OV-3 ovarian)	GI50 (T-47D breast) [µg/mL]	TGI (T-47D breast)	GI50 (TK-10 renal) [µg/mL]	TGI (TK-10 renal)	GI50 (U251 CNS) [µg/mL]	TGI (U251 CNS)	GI50 (UACC-62 melanoma) [µg/mL]	TGI (UACC-62 melanoma)
O=C1NN(C2=NNC3(C(=O)N2)c2ccccc2-c2ccccc23)C(c2ccccc2)=N/C1=C/c1ccc(Cl)cc1	60.5 (≈ 111 µM)	> 150 µg/mL	44.2 (≈ 81.2 µM)	> 150 µg/mL	44.7 (≈ 82.1 µM)	> 150 µg/mL	56.9 (≈ 104 µM)	> 150 µg/mL	30.7 (≈ 56.3 µM)	73.9 µg/mL	54 (≈ 99.1 µM)	> 150 µg/mL	13.4 (≈ 24.6 µM)	149 µg/mL	50.5 (≈ 92.6 µM)	132 µg/mL	41.3 (≈ 75.8 µM)	143 µg/mL	29.8 (≈ 54.7 µM)	65.6 µg/mL
O=c1oc2ccccc2c(O)c1Cc1ccc(Cc2c(O)c3ccccc3oc2=O)cc1		> 100 µM		> 100 µM		> 100 µM		> 100 µM		> 100 µM		> 100 µM		> 100 µM		> 100 µM		> 100 µM		> 100 µM
CCOC(=O)c1csc(NC(=O)C(C)N2CCCC2)n1 (stereo not given)		> 100 µM		> 100 µM		> 100 µM		> 100 µM		> 100 µM		> 100 µM		> 100 µM		> 100 µM		> 100 µM		> 100 µM
